Consider three molecules from patent US10766866B2, “Deterrents for arthropods and marine organisms” (priority 2017, dated 2020).

The target in experiment [1] is T1, AgAOctR (Anopheles octopamine receptor isoform A), cloned α-like OctR (Anopheles gambiae, UniProt Q7PRZ8).
T1 construct: Gq calcium readout
T1 sequence (Q7PRZ8 1-592): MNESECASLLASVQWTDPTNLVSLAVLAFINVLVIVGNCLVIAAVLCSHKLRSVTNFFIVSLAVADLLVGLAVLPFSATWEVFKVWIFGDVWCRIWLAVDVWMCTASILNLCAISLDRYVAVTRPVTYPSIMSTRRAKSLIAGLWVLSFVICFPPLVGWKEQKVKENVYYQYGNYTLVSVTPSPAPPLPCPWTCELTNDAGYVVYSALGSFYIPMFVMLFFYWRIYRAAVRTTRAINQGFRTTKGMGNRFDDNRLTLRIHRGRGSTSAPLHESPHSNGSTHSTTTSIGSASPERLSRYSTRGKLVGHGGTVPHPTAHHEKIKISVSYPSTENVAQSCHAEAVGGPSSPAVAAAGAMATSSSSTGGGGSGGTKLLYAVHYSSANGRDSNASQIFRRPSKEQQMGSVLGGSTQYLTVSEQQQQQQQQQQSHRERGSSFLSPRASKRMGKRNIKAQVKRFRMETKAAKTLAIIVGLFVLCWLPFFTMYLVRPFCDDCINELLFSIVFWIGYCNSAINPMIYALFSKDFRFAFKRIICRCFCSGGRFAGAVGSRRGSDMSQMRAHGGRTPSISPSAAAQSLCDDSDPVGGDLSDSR
In words: OctR activation: change in intracellular calcium (CALCIUM 6QR dye, FlexStation 3) in stably transfected mammalian cells. The format is cell-based. To be noted: agonist. From the text: (§1) Functional expression of cloned arthropod OctRs and human α2-ARs: The cDNAs for α-like OctRs from different arthropod species (e.g., Anopheles gambiae, Aedes aegypti, Periplaneta americana, Drosophila melanogaster, Ixodes scapularis, Balanus improvises) and for α2-AR subtypes from humans were individually subcloned into mammalian expression vectors. These plasmids, which harbor a resistance gene for the selection drug G418 and the cDNA sequence for the receptor of interest, were individually transfected into mammalian cells using a calcium phosphate precipitation method. G418 selection was then employed to generated stable clonal cell lines. Utilizing rapid filtration radioligand binding techniques, the cell surface density of receptor expression of the individual clonal cell lines was determined at equilibrium and those with similar high levels of expression were selected for further experiments. Briefly, binding conditions were 50 mM Tris binding buffer pH 7.4 at 25° C. and an ice-cold wash buffer 10 mM Tris-HCl, pH 7.4). The radioligand was [3H]rauwolscine and non-specific binding was determined in the presence of 10 μM atipamezole. Following the addition of membranes prepared from the clonal cell lines, samples were mixed and allowed 2 hr. to reach equilibrium before rapid filtration and washing through 0.3% PEI-treated GF/C filters. The radioactivity remaining on the filters was quantified by scintillation counting. Receptor density (Bmax) was back calculated knowing the specific activity of the radioligand and applying the equation for a square hyperbola model: Bmax=(Y·(KD+X))/X, where Y is [specifically bound radioligand] and X=[radio ligand concentration]. The affinity (KD) for the radioligand for each receptor was determined in separate saturation isotherm binding experiments using the same binding conditions as describe above.
(§2) Measurement of OctR activation by measuring changes in intracellular calcium: Activation of arthropod α-like OctRs increases intracellular calcium via a Gq-coupling mechanism. This involves activation of phospholipase C leading to an increase in intracellular inositol triphosphate (IP3) which then activates IP3-gated calcium channels in the endoplasmic reticulum causing a transient rise in intracellular calcium. These changes in intracellular calcium upon OctR activation were measured by loading cells with intracellular calcium sensitive dye CALCIUM 6QR and reading the change in calcium-induced fluorescent signal over time on a FlexStation 3 microplate reader.
Background: Calcium assays in cells follow changes in intracellular calcium, usually with a dye or a luminescent sensor.

Experiment [2] has as its system IsTOctR (Ixodes octopamine receptor), cloned α-like OctR. The experiment is described as above. To be noted: agonist, read-out: IsTOctR (Ixodes octopamine receptor) EC50. The format is cell-based, Ixodes scapularis.
From the text: as §1, §2

For experiment [3], the system named is α-like OctRs. Nature of the experiment: OctR activation, change in intracellular calcium (statements on OctRs in general). The format is cell-based. To be noted: relative to fluorinated AZ1411.
From the text: as §1, with “Briefly, binding conditions were 50 mM Tris binding buffer pH 7.4 at 25° C. and an ice-cold wash buffer 10 mM Tris-HCl, pH 7.4).” left out, “Following the addition of membranes prepared from the clonal cell lines, samples were mixed and allowed 2 hr. to reach equilibrium before rapid filtration and washing through 0.3% PEI-treated GF/C filters.” left out, “The affinity (KD) for the radioligand for each receptor was determined in separate saturation isotherm binding experiments using the same binding conditions as describe above.” left out

Experiment [4] relates to Ixodes scapularis tick OctR (IsTOctR). Nature of the experiment: OctR activation, change in intracellular calcium. The format is cell-based.
From the text: as §1, §2

Experiment [5] deals with Anopheles gambiae mosquito isoform A OctR (AgAOctR). Nature of the experiment: OctR activation, change in intracellular calcium. Conditions: for selectivity Ki(Hsα2-AR)/EC50(OctR): AgAOctR over Homo sapien α2-AR subtypes. The format is cell-based.
From the text: as §1, §2

The subject of experiment [6] is α2-ARs. In words: Functional profile at α2-ARs (preliminary studies). The format is cell-based, Homo sapien.
From the text: as §1, with “Briefly, binding conditions were 50 mM Tris binding buffer pH 7.4 at 25° C. and an ice-cold wash buffer 10 mM Tris-HCl, pH 7.4).” left out, “Following the addition of membranes prepared from the clonal cell lines, samples were mixed and allowed 2 hr. to reach equilibrium before rapid filtration and washing through 0.3% PEI-treated GF/C filters.” left out, “The affinity (KD) for the radioligand for each receptor was determined in separate saturation isotherm binding experiments using the same binding conditions as describe above.” left out

The subject of experiment [7] is AeOctR (Aedes octopamine receptor), cloned α-like OctR. Nature of the experiment: OctR activation: change in intracellular calcium (CALCIUM 6QR dye, FlexStation 3) in stably transfected mammalian cells. The format is cell-based, Aedes aegypti. Conditions: agonist.
From the text: as §1, §2

Experiment [8] has as its target T2, human α2C adrenergic receptor (α2c-AR) (Homo sapiens, UniProt P18825).
T2 construct: expressed in transfected cells
T2 sequence (P18825 1-462): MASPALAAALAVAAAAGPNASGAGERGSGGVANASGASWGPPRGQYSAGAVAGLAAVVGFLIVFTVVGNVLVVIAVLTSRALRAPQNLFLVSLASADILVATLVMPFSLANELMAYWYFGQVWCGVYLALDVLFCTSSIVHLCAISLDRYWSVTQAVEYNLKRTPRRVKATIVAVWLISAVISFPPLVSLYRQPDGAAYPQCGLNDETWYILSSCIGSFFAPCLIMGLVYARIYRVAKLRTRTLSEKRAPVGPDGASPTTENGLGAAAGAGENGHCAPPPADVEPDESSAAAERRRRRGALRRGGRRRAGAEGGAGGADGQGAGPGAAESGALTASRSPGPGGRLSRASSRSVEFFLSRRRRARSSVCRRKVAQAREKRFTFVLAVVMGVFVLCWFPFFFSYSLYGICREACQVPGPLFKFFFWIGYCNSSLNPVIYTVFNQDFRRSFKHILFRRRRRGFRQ
Nature of the experiment: Intracellular cyclic AMP (cAMP-Glo) functional assay, stably transfected mammalian cells. The format is cell-based.
From the text: as §1, with “Briefly, binding conditions were 50 mM Tris binding buffer pH 7.4 at 25° C. and an ice-cold wash buffer 10 mM Tris-HCl, pH 7.4).” left out, “Following the addition of membranes prepared from the clonal cell lines, samples were mixed and allowed 2 hr. to reach equilibrium before rapid filtration and washing through 0.3% PEI-treated GF/C filters.” left out, “The affinity (KD) for the radioligand for each receptor was determined in separate saturation isotherm binding experiments using the same binding conditions as describe above.” left out

Experiment [9] addresses T2, human α2C adrenergic receptor (α2c-AR). Nature of the experiment: Measurement of intracellular cAMP (cAMP-Glo). The format is cell-based, Homo sapien. To be noted: in words; normalized to 1 μM forskolin; FIG. 8.
From the text: as §1, with “Briefly, binding conditions were 50 mM Tris binding buffer pH 7.4 at 25° C. and an ice-cold wash buffer 10 mM Tris-HCl, pH 7.4).” left out, “Following the addition of membranes prepared from the clonal cell lines, samples were mixed and allowed 2 hr. to reach equilibrium before rapid filtration and washing through 0.3% PEI-treated GF/C filters.” left out, “The affinity (KD) for the radioligand for each receptor was determined in separate saturation isotherm binding experiments using the same binding conditions as describe above.” left out

Experiment [10] deals with T3, Hsα2C-AR (human α2C adrenergic receptor) (Homo sapiens, UniProt P18825).
T3 construct: expressed in transfected cells
T3 sequence (P18825 1-462): T2 sequence (P18825 1-462)
In words: [3H]rauwolscine competition radioligand binding, membranes of clonal mammalian cell lines. Conditions: 50 mM Tris pH 7.4, 25° C., 2 hr, Cheng-Prusoff.
From the text: as §1
(§3) Measurement of compound affinities by competition radioligand binding: Affinities (Ki) for compounds were determined by [3H]rauwolscine competition binding using the same binding conditions as described above. The Ki values were calculated from IC50 values using the Cheng-Prusoff equation.

Experiment [11] deals with T4, Hsα2A-AR (human α2A adrenergic receptor) (Homo sapiens, UniProt P08913).
T4 construct: expressed in transfected cells; membranes
The experiment is described as above. Conditions: 50 mM Tris pH 7.4, 25° C., 2 hr, Cheng-Prusoff.
From the text: as §1, §3

The target of experiment [12] is T5, Drosophila melanogaster α-like OctR (DmOctR) (Drosophila melanogaster, UniProt Q7JQF1).
T5 construct: expressed in transfected cells
T5 sequence (Q7JQF1 1-645): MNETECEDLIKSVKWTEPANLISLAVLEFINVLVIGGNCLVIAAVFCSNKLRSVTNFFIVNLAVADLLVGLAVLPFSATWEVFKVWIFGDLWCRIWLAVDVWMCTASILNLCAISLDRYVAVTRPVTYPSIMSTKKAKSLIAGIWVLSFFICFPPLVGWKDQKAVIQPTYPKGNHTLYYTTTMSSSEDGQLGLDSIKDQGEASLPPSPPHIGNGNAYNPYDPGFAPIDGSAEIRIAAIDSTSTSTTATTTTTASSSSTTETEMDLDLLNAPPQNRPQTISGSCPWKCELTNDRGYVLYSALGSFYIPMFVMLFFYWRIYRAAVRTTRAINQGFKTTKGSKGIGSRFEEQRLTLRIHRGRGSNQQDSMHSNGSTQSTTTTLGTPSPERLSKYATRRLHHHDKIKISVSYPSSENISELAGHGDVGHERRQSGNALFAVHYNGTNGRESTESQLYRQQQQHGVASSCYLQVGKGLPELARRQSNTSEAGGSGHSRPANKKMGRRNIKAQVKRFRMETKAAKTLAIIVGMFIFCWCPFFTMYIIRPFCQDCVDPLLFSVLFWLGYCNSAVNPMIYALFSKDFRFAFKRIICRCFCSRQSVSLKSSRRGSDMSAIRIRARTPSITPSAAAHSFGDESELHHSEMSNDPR
In words: OctR activation, change in intracellular calcium. The format is cell-based. Conditions: 100 μM; normalized to octopamine at a supersaturating concentration; FIG. 1A.
From the text: as §1, §2

The test system of experiment [13] is Aedes aegypti α-like OctR (AeOctR). In words: OctR activation, change in intracellular calcium. The format is cell-based. To be noted: 100 μM; normalized to octopamine at a supersaturating concentration; FIG. 1B.
From the text: as §1, §2

The test system of experiment [14] is Periplaneta americana OctR (PaOctR). Nature of the experiment: OctR activation, change in intracellular calcium. To be noted: 100 μM; normalized to octopamine at a supersaturating concentration; FIG. 1D. The format is cell-based.
From the text: as §1, §2

In experiment [15] the test system is Balanus OctR (BiOctR). In words: OctR activation, change in intracellular calcium. Conditions: 100 μM; compared with octopamine. The format is cell-based, Balanus improvises.
From the text: as §1, with “Briefly, binding conditions were 50 mM Tris binding buffer pH 7.4 at 25° C. and an ice-cold wash buffer 10 mM Tris-HCl, pH 7.4).” left out, “Following the addition of membranes prepared from the clonal cell lines, samples were mixed and allowed 2 hr. to reach equilibrium before rapid filtration and washing through 0.3% PEI-treated GF/C filters.” left out, “The affinity (KD) for the radioligand for each receptor was determined in separate saturation isotherm binding experiments using the same binding conditions as describe above.” left out

The structures appear in SMILES notation.

T4 sequence (P08913 whole entry): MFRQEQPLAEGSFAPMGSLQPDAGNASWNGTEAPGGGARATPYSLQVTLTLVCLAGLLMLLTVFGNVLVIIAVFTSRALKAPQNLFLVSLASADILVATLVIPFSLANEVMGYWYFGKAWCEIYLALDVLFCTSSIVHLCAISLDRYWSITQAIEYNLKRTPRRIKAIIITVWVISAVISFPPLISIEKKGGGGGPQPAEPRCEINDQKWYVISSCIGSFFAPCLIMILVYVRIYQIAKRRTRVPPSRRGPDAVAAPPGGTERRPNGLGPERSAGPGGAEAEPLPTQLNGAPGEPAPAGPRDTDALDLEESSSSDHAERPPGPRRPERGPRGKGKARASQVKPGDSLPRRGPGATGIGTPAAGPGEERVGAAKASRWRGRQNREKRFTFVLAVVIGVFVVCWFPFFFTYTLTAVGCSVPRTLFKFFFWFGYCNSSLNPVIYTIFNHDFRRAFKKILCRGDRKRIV

For the molecule `C=C(c1cnc[nH]1)c1cccc(Cl)c1C` [AZ1436], the concentration for a half-maximal effect (EC50) was 0.025 ± 0.0019 nM in [1] and 1.8 ± 0.83 nM in experiment [2]. For the same molecule, the “potency for OctRs compared with AZ1411” value in experiment [3] is 2-4. For the same molecule, the “potency (EC50)” value in experiment [4] (in words, FIG. 9) is “potent”; in experiment [5] (in words, FIGS. 9-12), “potent”. Moreover, the “efficacy (full/partial agonist)” value in experiment [4] (in words, FIGS. 9, 11) is “full agonist”; in experiment [5] (in words, FIGS. 9-12), “full agonist”. Besides, the “selectivity Ki(Hsα2-AR)/EC50(OctR)” value in experiment [5] is recorded as “highly selective”. Besides, the “functional mode at α2-ARs” value in experiment [6] is on record as “likely an antagonist”.

For `C=C(c1cnc[nH]1)c1cccc(F)c1C` [AZ1411], the EC50 in [7] amounted to 81 ± 46 nM; in [1], 0.11 ± 0.058 nM; in experiment [2], 2.9 ± 1.3 nM; in experiment [8], 931 nM. Moreover, the “selectivity Ki(Hsα2-AR)/EC50(OctR)” value in [4] (Ixodes tick OctR over Homo sapien α2-AR subtypes) and in experiment [5] was “highly selective” in each case. In addition, the “efficacy (change in intracellular cyclic AMP)” value in experiment [9] is given as “partial agonist”. For the same molecule, in experiment [9], the “potency (change in intracellular cyclic AMP)” value was “low potency”. Further, the Ki in experiment [10] amounted to 3530 ± 1590 nM; in [11], 494 ± 177 nM.

As for `CCC(C)OC(=O)N1CCCCC1CCO` (stereo not drawn) [picaridin, 1-(1-methylpropoxycarbonyl)-2-(2-hydroxyethyl)piperidine], the “agonist response (change in intracellular calcium) relative to octopamine” value in experiment [12] is “did not produce a significant agonist response”; in experiment [13] it was “did not produce a significant agonist response”; in [4] (100 μM, normalized to octopamine at a supersaturating concentration, FIG. 1C), “did not produce a significant agonist response”; in experiment [14], “did not produce a significant agonist response”; in [15], “significant agonist responses”.

One may read the EC50 as the concentration that produces a half-maximal response. In general, Ki refers to a dissociation constant, usually derived from enzyme kinetics or from competition with a known ligand. Low readings indicate tighter binding, high ones weaker binding.
